Results as given in publication PMC10907494, “Applications of biaryl cyclization in the synthesis of cyclic enkephalin analogs with a highly restricted flexibility” (Amino Acids, 2024).
Marks after values point to notes of the source that are not given here.

Biological target: μ-opioid receptor (MOR) (Rattus norvegicus, UniProt P33535)
Experiment: biochemical
Conditions: for Radioligand SB at 30 μM of ligand (% of radioligand specific binding): mean and standard deviation; for % of radioligand specific binding at 3 μM, mean / % of radioligand specific binding at 10 μM, mean / % of radioligand specific binding at 30 μM, mean: initial screening; for MOR binding, times weaker than that of the linear counterpart: ratio of IC50 values, cyclic analog vs its linear counterpart
Protocol: The binding affinity of cyclic and linear enkephalin analogs for μ-opioid receptor (MOR) was determined in competitive radioligand binding assays using membrane preparations from rat brain homogenates. The homogenates were obtained as described previously (Matalińska et al. [2020]). The membrane preparations were incubated at 25 °C for 60 min in the presence of 1.0 nM [^3H]DAMGO (obtained from PerkinElmer, USA) and the set of concentrations of the assayed compound proper for a particular compound and type of determination (screening or a full-displacement curve).
For screening purposes, we performed the experiments with the following concentrations of the compounds tested: 30 μM, 10 μM, and 3 μM. For full-displacement curves, 10 concentrations ranging either from 0.03 nM to 1 μM or from 300 nM to 30 μM were used. The range was chosen for the single compounds in a manner such that the expected IC50 would fall in the middle of the range. In the case of several experiments, only five concentrations were used (they are marked in the results table).
Non-specific binding was measured in the presence of 10 μM naloxone. The assays were conducted with the assay buffer made of 50 mM Tris–HCl (pH 7.4), bacitracin (100 μg/ml), bestatin (30 μM), and captopril (10 μM), phenylmethylsulfonyl fluoride (PMSF, 30 μg/ml) in a total volume of 0.5 ml. After the incubation, a rapid filtration with a M-24 Cell Harvester (Brandel/USA) through GF/B Whatman glass fiber strips was conducted. The filters were soaked with 0.5% PEI just before the harvesting so as to minimize the extent of non-specific binding. Filter disks were cut from the sheet and placed separately in 24-well plates. The Optiphase Supermix scintillation solution (Perkin Elmer, USA) was added to each well. Radioactivity was measured in a scintillation counter MicroBeta LS, Trilux (PerkinElmer, USA). Displacement curves were drawn and the mean IC50 values were determined with SEMs (GraphPad Prism v. 5.0, San Diego, CA).

[1] = IC50 (estimation based on the screening results), estimated from screening at 30 μM, 10 μM and 3 μM, [3H]DAMGO, rat brain membranes
[2] = IC50 ± S.E.M., full-displacement curves, 1.0 nM [3H]DAMGO, rat brain membranes, 25 °C, 60 min, mean of 2 or 3 experiments unless footnoted
[3] = estimated IC50, estimated from initial screening at 30, 10 and 3 μM

μ-opioid receptor (MOR), sequence (P33535 whole entry): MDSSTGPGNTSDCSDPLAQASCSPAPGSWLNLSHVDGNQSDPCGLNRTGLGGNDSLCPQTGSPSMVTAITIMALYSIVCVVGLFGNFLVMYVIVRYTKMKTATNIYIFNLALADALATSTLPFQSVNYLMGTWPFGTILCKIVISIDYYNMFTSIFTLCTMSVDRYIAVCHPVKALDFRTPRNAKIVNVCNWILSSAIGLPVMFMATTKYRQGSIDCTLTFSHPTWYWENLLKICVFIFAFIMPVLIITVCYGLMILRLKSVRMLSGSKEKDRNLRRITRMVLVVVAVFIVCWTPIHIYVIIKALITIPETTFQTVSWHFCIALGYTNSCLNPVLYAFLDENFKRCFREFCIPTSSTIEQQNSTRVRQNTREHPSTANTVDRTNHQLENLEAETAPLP

| Compound | Radioligand SB at 30 μM of ligand (% of radioligand specific binding) ([3H]DAMGO) [%] | IC50 [1] [nM] | % of radioligand specific binding at 3 μM, mean | % of radioligand specific binding at 10 μM, mean | % of radioligand specific binding at 30 μM, mean | IC50 [2] [nM] | MOR binding, times weaker than that of the linear counterpart [times] | IC50 [3] [nM] | MOR binding reduced, times, compared to the parent [Leu^5]enk-NH2 (ratio of IC50 values vs [Leu^5]enk-NH2) |
| --- | --- | --- | --- | --- | --- | --- | --- | --- | --- |
| CC(C)C[C@H](NC(=O)[C@@H]1Cc2ccc(cc2)-c2ccc(cc2)C[C@H](N)C(=O)NCC(=O)NCC(=O)N1)C(N)=O [c-(Phe-p-Phe-p)-L-NH2, H-(cyclo-p,p)-[Phe-Gly-Gly-Phe]-Leu-NH2] | 73 ± 19 | > 30000 | 110% | 78% | 73% | – | – | – | – |
| CC(C)C[C@H](NC(=O)[C@@H]1Cc2ccc(O)c(c2)-c2ccc(cc2)C[C@H](N)C(=O)NCC(=O)NCC(=O)N1)C(N)=O [c-(Phe-p-Tyr-m)-L-NH2, H-(cyclo-p,m)-[Phe-Gly-Gly-Tyr]-Leu-NH2] | 17 ± 3 | – | 62^c) % | 34^c) % | 17^c) % | 6670 ± 262 | – | – | – |
| CC(C)C[C@H](NC(=O)[C@@H]1Cc2cccc(c2)-c2cc(ccc2O)C[C@H](N)C(=O)NCC(=O)NCC(=O)N1)C(N)=O [c-(Tyr-m-Phe-m)-L-NH2, H-(cyclo-m,m)-[Tyr-Gly-Gly-Phe]-Leu-NH2] | 12 ± 3 | – | 64% | 28% | 12% | 3080 | ~500 | – | – |
| CC(C)C[C@H](NC(=O)[C@@H]1Cc2ccc(cc2)-c2cc(ccc2O)C[C@H](N)C(=O)NCC(=O)NCC(=O)N1)C(N)=O [c-(Tyr-m-Phe-p)-L-NH2, H-(cyclo-m,p)-[Tyr-Gly-Gly-Phe]-Leu-NH2] | 77 ± 4 | > 30000 | 99% | 78% | 77% | – | – | – | – |
| CSCC[C@H](NC(=O)[C@@H]1Cc2ccc(cc2)-c2cc(ccc2O)C[C@H](N)C(=O)NCC(=O)NCC(=O)N1)C(N)=O [c-(Tyr-m-Phe-p)-M-NH2, H-(cyclo-m,p)-[Tyr-Gly-Gly-Phe]-Met-NH2] | 12 ± 4 | – | 49% | 34% | 12% | 1370 ± 266 | ~500 | ~1000 | – |
| CC(C)C[C@H](NC(=O)[C@@H]1Cc2ccc(O)c(c2)-c2cc(ccc2O)C[C@H](N)C(=O)NCC(=O)NCC(=O)N1)C(N)=O [c-(Tyr-m-Tyr-m)-L-NH2, H-(cyclo-m,m)-[Tyr-Gly-Gly-Tyr]-Leu-NH2] | 117 ± 1 | > 30000 | 87% | 102% | 117% | – | – | – | – |
| H-(cyclo-m,p)-[Tyr-Gly-Gly-Phe]-Leu-OH [c-(Tyr-m-Phe-p)-L-OH] | 36 ± 6 | – | 88% | 60% | 36% | – | – | – | – |
| H-FGGFL-NH2 [[Phe^1,Leu^5]enk-NH2, H-Phe-Gly-Gly-Phe-Leu-NH2, reference compound] | 5 ± 1 | – | 26^c) % | 13^c) % | 5^c) % | 596 ± 48.8 | – | < 3000 | – |
| H-Phe-Gly-Gly-Tyr-Leu-NH2 (H-FGGYL-NH2) [[Phe^1,Tyr^4,Leu^5]enk-NH2, reference compound] | 43 ± 11 | – | 85% | 61% | 43% | – | – | – | – |
| H-YGGYL-NH2 [[Tyr^4,Leu^5]enk-NH2, H-Tyr-Gly-Gly-Tyr-Leu-NH2, reference compound] | – | – | – | – | – | 222 ± 15.9 | – | – | about 40 times |
